Measured values published in ChEMBL document CHEMBL3112436, “Discovery of a novel series of indoline carbamate and indolinylpyrimidine derivatives as potent GPR119 agonists” (Bioorg Med Chem, 2014).
Values after ≈ are worked out from the molar mass of the structure shown.

Experiments:
[1] = target: T1, Glucose-dependent insulinotropic receptor (Homo sapiens, UniProt Q8TDV5); assay: Agonist activity at human GPR119 transfected in CHO cells assessed as cAMP accumulation after 2 hrs by luciferase reporter gene assay; assay type: functional, cell-based
T1 sequence (Q8TDV5 whole entry): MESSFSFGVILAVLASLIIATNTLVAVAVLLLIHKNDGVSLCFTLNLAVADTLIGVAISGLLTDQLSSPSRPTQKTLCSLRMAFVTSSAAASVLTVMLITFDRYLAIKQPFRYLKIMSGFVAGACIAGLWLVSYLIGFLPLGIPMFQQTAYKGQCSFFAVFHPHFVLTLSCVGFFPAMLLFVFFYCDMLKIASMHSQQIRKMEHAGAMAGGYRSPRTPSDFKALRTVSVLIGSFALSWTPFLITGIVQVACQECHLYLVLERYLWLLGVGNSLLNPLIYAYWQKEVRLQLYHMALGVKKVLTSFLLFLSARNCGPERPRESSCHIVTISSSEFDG

[2] = 1-Octanol-water partition coefficient, log D of the compound at pH 7.4 by HPLC analysis; assay type: physicochemical
[3] = Aqueous solubility of the compound in buffer at pH 6.8 by HPLC analysis; assay type: physicochemical
Rattus norvegicus [4] = assay: Antidiabetic activity in Wistar fatty rat type 2 diabetic model assessed as reduction of plasma glucose level at 30 mg/kg, po administered 1 hr prior to glucose challenge by oral glucose tolerance test; assay type: functional, organism-based; set-up: dose 30 mg/kg; settings: TDE = time-dependent effect
Rattus norvegicus [5] = assay: Antidiabetic activity in Wistar fatty rat type 2 diabetic model assessed as increase in insulin secretion at 30 mg/kg, po administered 1 hr prior to glucose challenge by oral glucose tolerance test; assay type: functional, organism-based; set-up: dose 30 mg/kg; settings: TDE = time-dependent effect
Rattus norvegicus [6] = assay: Antidiabetic activity in Wistar fatty rat type 2 diabetic model assessed as reduction of plasma glucose level at 10 mg/kg, po administered 1 hr prior to glucose challenge by oral glucose tolerance test; assay type: functional, organism-based; set-up: dose 10 mg/kg; settings: TDE = time-dependent effect
Rattus norvegicus [7] = assay: Antidiabetic activity in Wistar fatty rat type 2 diabetic model assessed as increase in insulin secretion at 10 mg/kg, po administered 1 hr prior to glucose challenge by oral glucose tolerance test; assay type: functional, organism-based; set-up: dose 10 mg/kg; settings: TDE = time-dependent effect

Row | SMILES | EC50 [1] | logD [2] | solubility [3] | Activity (Rattus norvegicus [4]) | Activity (Rattus norvegicus [5]) | Activity (Rattus norvegicus [6]) | Activity (Rattus norvegicus [7])
1 | CC(C)OC(=O)N1CCC(Oc2ccnc(N3CCc4cc(S(C)(=O)=O)ccc43)c2)CC1 | 87 nM | 3 |  |  |  |  | 
2 | CC(C)OC(=O)N1CCC(Oc2cccc(N3CCc4cc(S(C)(=O)=O)ccc43)c2)CC1 | 490 nM | 3.5 |  |  |  |  | 
3 | CC(COC(=O)N1CCc2cc(S(C)(=O)=O)ccc21)C1CCN(C(=O)OC(C)(C)C)CC1 (racemic) | 8.4 nM | 3.4 |  |  |  |  | 
4 | CC(C)(C)OC(=O)N1CCC(CCNC(=O)N2CCc3cc(S(C)(=O)=O)ccc32)CC1 | 2500 nM | 2.3 |  |  |  |  | 
5 | CC(COC(=O)N1CCc2cc(S(C)(=O)=O)cc(F)c21)C1CCN(C(=O)OC(C)(C)C)CC1 (racemic) | 6.8 nM | 3.3 | 21 µg/mL (≈ 43.3 µM) |  |  |  | 
6 | CCc1cnc(N2CCC(Oc3cc(N4CCc5cc(S(C)(=O)=O)ccc54)ncn3)CC2)nc1 | 11 nM | 3.8 |  |  |  |  | 
7 | CC(C)(C)OC(=O)N1CCC(n2ccc3c(N4CCc5cc(S(C)(=O)=O)ccc54)ncnc32)CC1 | 16 nM |  |  |  |  |  | 
8 | CC(C)OC(=O)N1CCC(Oc2cc(N3CCc4cc(S(C)(=O)=O)ccc43)ncn2)CC1 | 17 nM | 3.1 |  |  |  |  | 
9 | CC(C)OC(=O)N1CCC(Oc2ccnc(N3CCc4cc(S(C)(=O)=O)ccc43)n2)CC1 | 8800 nM | 3.5 |  |  |  |  | 
10 | CC(CC1CCN(C(=O)OC(C)(C)C)CC1)OC(=O)N1CCc2cc(S(C)(=O)=O)ccc21 (racemic) | 2600 nM | 3.4 |  |  |  |  | 
11 | CC(C)(C)OC(=O)N1CCC(CCOC(=O)N2CCc3cc(S(C)(=O)=O)c(F)cc32)CC1 | 160 nM | 3.3 | 0.67 µg/mL (≈ 1.42 µM) |  |  |  | 
12 | CC(C)(C)OC(=O)N1CCC(CCOC(=O)N2CCc3c2ccc(S(C)(=O)=O)c3Cl)CC1 | 530 nM | 3.6 | 0.21 µg/mL (≈ 0.431 µM) |  |  |  | 
13 | COc1cc(S(C)(=O)=O)cc2c1N(C(=O)OCCC1CCN(C(=O)OC(C)(C)C)CC1)CC2 | 1700 nM | 2.8 | 64 µg/mL (≈ 133 µM) |  |  |  | 
14 | Cc1c(S(C)(=O)=O)ccc2c1CCN2C(=O)OCCC1CCN(C(=O)OC(C)(C)C)CC1 | 770 nM | 3.4 | 0.17 µg/mL (≈ 0.364 µM) |  |  |  | 
15 | CC(C)(C)OC(=O)N1CCC(CCOC(=O)N2CCc3cc(S(C)(=O)=O)cc(Cl)c32)CC1 | 21 nM | 3.2 | 21 µg/mL (≈ 43.1 µM) |  |  |  | 
16 | CC(C)OC(=O)N1CCC(Oc2ncnc(N3CCc4cc(S(C)(=O)=O)ccc43)n2)CC1 | 520 nM | 2.6 |  |  |  |  | 
17 | CC(C)(C)OC(=O)N1CCC(CCOC(=O)N2CCc3cc(S(C)(=O)=O)cc(F)c32)CC1 | 25 nM | 3 | 42 µg/mL (≈ 89.3 µM) |  |  |  | 

Continued by falling EC50 [1], values first:

Row | EC50 [1] | logD [2] | solubility [3] | SMILES | Activity (Rattus norvegicus [4]) | Activity (Rattus norvegicus [5]) | Activity (Rattus norvegicus [6]) | Activity (Rattus norvegicus [7])
18 | 4800 nM | 3.3 | 45 µg/mL (≈ 93.2 µM) | COc1cc2c(cc1S(C)(=O)=O)CCN2C(=O)OCCC1CCN(C(=O)OC(C)(C)C)CC1 |  |  |  | 
19 | 2400 nM | 2.1 |  | CC(C)(C)OC(=O)N1CCC(C(O)COC(=O)N2CCc3cc(S(C)(=O)=O)ccc32)CC1 (racemic) |  |  |  | 
20 | 1400 nM | 4.1 |  | CC(C)(C)OC(=O)N1CCC(CCCCN2CCc3cc(S(C)(=O)=O)ccc32)CC1 |  |  |  | 
21 | 120 nM | 2.9 |  | CC(C)(C)OC(=O)N1CCC(CCCC(=O)N2CCc3cc(S(C)(=O)=O)ccc32)CC1 |  |  |  | 
22 | 68 nM | 3.1 |  | CC(C)(C)OC(=O)N1CCC(CCOC(=O)N2CCc3cc(S(C)(=O)=O)ccc32)CC1 |  |  |  | 
23 | 44 nM | 3.2 | 44 µg/mL (≈ 94.3 µM) | Cc1cc(S(C)(=O)=O)cc2c1N(C(=O)OCCC1CCN(C(=O)OC(C)(C)C)CC1)CC2 |  |  |  | 
24 | 25 nM | 3.2 | 0.81 µg/mL (≈ 1.72 µM) | CC(C)(C)OC(=O)N1CCC(CCOC(=O)N2CCc3c2ccc(S(C)(=O)=O)c3F)CC1 |  |  |  | 
25 | 7.7 nM | 3.1 |  | CC(C)c1noc(N2CCC(Oc3cc(N4CCc5cc(S(C)(=O)=O)ccc54)ncn3)CC2)n1 |  |  | tde | tde
26 | 3.9 nM | 3.6 | 3.8 µg/mL (≈ 7.75 µM) | CCc1cnc(N2CCC(C(C)COC(=O)N3CCc4cc(S(C)(=O)=O)cc(F)c43)CC2)nc1 (racemic) | tde | tde |  | 
